The values that follow come from patent publication US10160762B2, “6-alkyl dihydropyrazolopyrimidinone compounds as PDE2 inhibitors” (Merck Sharp & Dohme Corp., priority 2015, dated 2018).

Where two headings read alike, the source gives them in different places.

This test addresses T1, human PDE2A1 (Homo sapiens, UniProt O00408).
T1 construct: GST; purchased BPS Bioscience (San Diego, Calif.) 60020; host or cells: insect cells
Kind of test: IMAP FP PDE assay, human PDE2A1. The format is biochemical. An outline of the steps:
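GST-tagged human PDE2A1 from insect cells; substrate 50 nM FAM-cAMP containing 1000 nM cGMP in Tris pH 7.2/MgCl2/DTT buffer, enzyme giving 20% conversion. 60 min at room temperature, IMAP binding reagent, fluorescence polarization read. Apparent Ki from FP readings using apparent KM 10,000 nM; ten-point 3-fold titrations.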

Where [1] appears, read: Lab B, read-out: Human PDE2 Ki (nM) Lab B.

T1 sequence (O00408 1-920 isoform O00408-2): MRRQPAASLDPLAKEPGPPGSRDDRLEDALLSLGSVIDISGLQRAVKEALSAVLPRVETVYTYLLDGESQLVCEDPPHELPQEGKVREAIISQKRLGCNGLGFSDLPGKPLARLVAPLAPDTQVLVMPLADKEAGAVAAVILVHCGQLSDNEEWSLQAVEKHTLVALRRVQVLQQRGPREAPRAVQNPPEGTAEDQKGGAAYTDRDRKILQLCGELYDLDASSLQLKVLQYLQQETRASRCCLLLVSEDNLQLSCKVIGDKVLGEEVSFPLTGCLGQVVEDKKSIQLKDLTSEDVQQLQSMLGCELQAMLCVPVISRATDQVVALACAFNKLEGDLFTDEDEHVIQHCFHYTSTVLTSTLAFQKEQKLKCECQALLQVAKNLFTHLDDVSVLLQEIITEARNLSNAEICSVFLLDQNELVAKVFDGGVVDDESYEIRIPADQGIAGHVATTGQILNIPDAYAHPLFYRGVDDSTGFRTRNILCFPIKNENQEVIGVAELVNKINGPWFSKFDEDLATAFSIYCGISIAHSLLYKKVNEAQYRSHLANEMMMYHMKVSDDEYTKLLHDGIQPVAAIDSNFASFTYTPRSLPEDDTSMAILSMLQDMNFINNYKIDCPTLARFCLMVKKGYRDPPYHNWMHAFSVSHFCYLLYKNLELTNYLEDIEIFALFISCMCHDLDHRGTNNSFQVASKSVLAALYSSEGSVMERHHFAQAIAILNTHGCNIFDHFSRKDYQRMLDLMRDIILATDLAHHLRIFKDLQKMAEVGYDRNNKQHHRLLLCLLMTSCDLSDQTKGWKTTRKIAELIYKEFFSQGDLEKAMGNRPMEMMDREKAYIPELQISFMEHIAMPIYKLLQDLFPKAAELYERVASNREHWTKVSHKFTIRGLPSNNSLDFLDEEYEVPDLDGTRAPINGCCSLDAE

On to `Cc1nc2c(c(CC(O)C(F)(F)F)nn2C(C)c2ccc(C(F)(F)F)cc2)c(=O)[nH]1` (single isomer, unassigned) [Example 242], for which the Ki under setting [1] stood at 434 nM.
For the compound `COc1ccc(Cc2nc3c(c(CO)nn3C(C)c3ccc(C(F)(F)F)cc3)c(=O)[nH]2)cc1OC` (racemic) [Example 297, 6-(3,4-Dimethoxybenzyl)-3-(hydroxymethyl)-1-{1-[4-(trifluoromethyl)phenyl]ethyl}-1,5-dihydro-4H-pyrazolo[3,4-d]pyrimidin-4-one], the Ki (Lab A, read-out: Human PDE2 Ki (nM) Lab A) was found to be 0.72 nM.
For `Cc1nc2c(c(CC(O)C(F)(F)F)nn2C(C)c2ccc(C(F)(F)F)cc2)c(=O)[nH]1` (single isomer, unassigned) [Example 240], under setting [1], the Ki was 434 nM.
`Cc1nc2c(c(C(F)F)nn2C(C)c2ccc(SC(F)(F)F)cc2)c(=O)[nH]1` (single isomer, unassigned) [Example 180, (S)- or (R)-3-(Difluoromethyl)-6-methyl-1-(1-(4-(trifluoromethylthio)phenyl)ethyl)-1H-pyrazolo[3,4-d] pyrimidin-4(5H)-one]: under setting [1], the Ki is 0.55 nM.
On the same count and under the same terms, to `Cc1nc2c(c(C3CCCO3)nn2C(C)c2ccc(C(F)(F)F)cc2)c(=O)[nH]1` (single isomer, unassigned) [Example 71, (R, S)- or (R, R)- or (S, R)- or (S, S)-6-Methyl-3-(-tetrahydrofuran-2-yl)-1-(-l-(4-(trifluoromethyl)phenyl)ethyl)-1H-pyrazolo[3,4-d]pyrimidin-4(5H)-one] belongs 111 nM.
For `Cc1nc2c(c(C(N)=O)nn2C(C)c2ccc(C(F)(F)F)cc2)c(=O)[nH]1` (single isomer, unassigned) [Example 256], under setting [1], the Ki amounted to 86 nM.
Same read-out and setting: to `Cc1nc2c(c(C3CCCO3)nn2C(C)c2ccc(C(F)(F)F)cc2)c(=O)[nH]1` (single isomer, unassigned) [Example 73, (S, S)- or (S, R)- or (R, R)- or (R, S)-6-Methyl-3-(-tetrahydrofuran-2-yl)-1-(-l-(4-(trifluoromethyl)phenyl)ethyl)-1H-pyrazolo[3,4-d]pyrimidin-4(5H)-one] belongs 423 nM; to `Cc1nc2c(c(CO)nn2C(C)c2ccc(OC(F)F)c(F)c2)c(=O)[nH]1` (single isomer, unassigned) [Example 113, (S)- or (R)-1-(1-(4-(Difluoromethoxy)-3-fluorophenyl)ethyl)-3-(hydroxymethyl)-6-methyl-1H-pyrazolo[3,4-d]pyrimidin-4(5H)-one], 3 nM; to `Cc1nc2c(c(C(F)F)nn2C(C)c2ccc(C(F)(F)F)cc2Cl)c(=O)[nH]1` (single isomer, unassigned) [Example 183, (R)- or (S)-1-(1-(2-Chloro-4-(trifluoromethyl)phenyl)ethyl)-3-(difluoromethyl)-6-methyl-1H-pyrazolo[3,4-d]pyrimidin-4(5H)-one], 547 nM.
Regarding `Cc1nc2c(c(CO)nn2C(C)c2ccc(C3(C(F)(F)F)CC3)cc2)c(=O)[nH]1` (single isomer, unassigned) [Example 81], the Ki under setting [1] is 7.7 nM.
On to `Cc1nc2c(c(-c3ccn[nH]3)nn2C(C)c2ccc(C(F)(F)F)cc2)c(=O)[nH]1` (single isomer, unassigned) [Example 235], for which the Ki under setting [1] stood at 25 nM.
Still for that read-out and setting: to `Cc1nc2c(c(-c3cn[nH]c3)nn2C(C)c2ccc(C(F)(F)F)cc2)c(=O)[nH]1` (single isomer, unassigned) [Example 238] belongs 48 nM; to `Cc1nc2c(c(CO)nn2C(C)c2ccc(C(F)(F)F)cc2I)c(=O)[nH]1` (single isomer, unassigned) [Example 140, (R)- or (S)-3-(Hydroxymethyl)-1-(1-(2-iodo-4-(trifluoromethyl-)phenyl)ethyl)-6-methyl-1,5-dihydro-4H-pyrazolo[3,4-d]pyrimidin-4-one], 939 nM.
On the same count and under the same terms, to `COCC(c1ccc(C(F)(F)F)cc1)n1nc(CO)c2c(=O)[nH]c(C)nc21` (single isomer, unassigned) [Example 100, (R)- or (S)-3-(Hydroxymethyl)-1-(2-methoxy-1-(4-(trifluoromethyl)phenyl)ethyl)-6-methyl-1H-pyrazolo[3,4-d]pyrimidin-4(5H)-one] belongs approximately 1670 nM; to `CC(c1ccc(C(F)(F)F)cc1)n1nc(C#N)c2c(=O)[nH]c(CC3CCCC3)nc21` (single isomer, unassigned) [Example 350], 62 nM.
On the same count and under the same terms, to `Cc1nc2c(c(NS(C)(=O)=O)nn2C(C)c2ccc(C(F)(F)F)cc2)c(=O)[nH]1` (stereo not shown) [Example 261, N-(6-Methyl-4-oxo-1-(1 (4-(trifluoromethyl)phenyl)ethyl)-4,5-dihydro-1H-pyrazolo[3,4-d]pyrimidin-3-yl)methanesulfonamide] belongs approximately 1800 nM.
Turning to `Cc1nc2c(c(CO)nn2C(C)c2ccc(S(F)(F)(F)(F)F)cc2F)c(=O)[nH]1` (single isomer, unassigned) [Example 120], the Ki under setting [1] is 496 nM.
Still for that read-out and setting: the value for `Cc1nc2c(c(CF)nn2C(c2ccc(OC(F)(F)F)c(F)c2)C2CC2)c(=O)[nH]1` (single isomer, unassigned) [Example 229, (S)- or (R)-1-(Cyclopropyl(3-fluoro-4-(trifluoromethoxy)phenyl)methyl)-3-(fluoromethyl)-6-methyl-1,5-dihydro-4H-pyrazolo[3,4-d]pyrimidin-4-one] was 2 nM.
On the same count and under the same terms, to `Cc1nc2c(c(C(F)F)nn2C(C)c2ccc(S(F)(F)(F)(F)F)cc2)c(=O)[nH]1` (single isomer, unassigned) [Example 161] belongs 224 nM; to `Cc1nc2c(c(CO)nn2C(C)c2ccc(C(F)(F)F)cc2F)c(=O)[nH]1` (single isomer, unassigned) [Example 16, (R)- or (S)-1-(1-(2-Fluoro-4-(trifluoromethyl)phenyl)ethyl)-3-(hydroxymethyl)-6-methyl-1H-pyrazolo[3,4-d]pyrimidin-4(5H)-one], 81 nM.
Turning to `Cc1nc2c(c(CO)nn2C(C)c2c(F)cc(C(F)(F)F)cc2F)c(=O)[nH]1` (single isomer, unassigned) [Example 136], under setting [1], the Ki came out at 5 nM.
The same measure, in the same setting: the value for `Cc1nc2c(c(CO)nn2C(C)c2ccc(S(F)(F)(F)(F)F)cc2F)c(=O)[nH]1` (single isomer, unassigned) [Example 121] was 2.8 nM; that for `CC(c1ccc(S(F)(F)(F)(F)F)cc1)n1nc(CO)c2c(=O)[nH]c(C3CC3)nc21` (single isomer, unassigned) [Example 316, (S)- or (R)-6-Cyclopropyl-3-(hydroxymethyl)-1-{1-[4-(pentafluoro-sulfanyl)-phenyl]ethyl}-1,5-dihydro-4H-pyrazolo[3,4-d]pyrimidin-4-one] was 72 nM; that for `Cc1nc2c(c(CO)nn2C(C)c2ccc(C(F)F)cc2)c(=O)[nH]1` (single isomer, unassigned) [Example 111, (S)- or (R)-1-(1-(4-(Difluoromethyl)phenyl)ethyl)-3-(hydroxymethyl)-6-methyl-1H-pyrazolo[3,4-d]pyrimidin-4(5H)-one] was 3.2 nM.
The same measure, in the same setting: the value for `Cc1nc2c(c(N)nn2C(C)c2ccc(C(F)(F)F)cc2)c(=O)[nH]1` (stereo not shown) [Example 258, 3-Amino-6-methyl-1-(1-(4-(trifluoromethyl)phenyl)ethyl)-H-pyrazolo[3,4-d]pyrimidin-4(5H)-one] was 42 nM; that for `CC(c1ccc(C(F)(F)F)cc1)n1nc(C#N)c2c(=O)[nH]c(CC3CC3)nc21` (single isomer, unassigned) [Example 346] was 34 nM; that for `Cc1nc2c(c(CO)nn2C(C)[C@H]2CC[C@H](C(F)(F)F)CC2)c(=O)[nH]1` (single isomer, unassigned) [Example 124, (R)- or (S)-3-(Hydroxymethyl)-6-methyl-1-((trans)-4-(trifluoromethyl)cyclohexyl) ethyl)-1H-pyrazolo[3,4-d]-pyrimidin-4(5H)-one] was 521 nM.
Still for that read-out and setting: to `Cc1nc2c(c(C(F)F)nn2C(C)c2ccc(C(F)(F)F)c(F)c2)c(=O)[nH]1` (single isomer, unassigned) [Example 168, (S)- or (R)-3-(Difluoromethyl)-1-(1-(3-fluoro-4-(trifluoromethyl)phenyl)ethyl)-6-methyl-1H-pyrazolo[3,4-d]pyrimidin-4(5H)-one] belongs 1.4 nM; to `CC(=O)Nc1nn(C(C)c2ccc(C(F)(F)F)cc2)c2nc(C)[nH]c(=O)c12` (single isomer, unassigned) [Example 259], approximately 2120 nM; to `Cc1nc2c(c(CO)nn2C2(c3ccc(C(F)(F)F)cc3)COC2)c(=O)[nH]1` [Example 79, 3-(Hydroxymethyl)-6-methyl-1-(3-(4-(trifluoromethyl)phenyl)oxetan-3-yl)-1H-pyrazolo[3,4-d]pyrimidin-4(5H)-one], 23 nM.
Consider `Cc1nc2c(c(CO)nn2C(C)c2ccc(C(F)(F)F)cc2C)c(=O)[nH]1` (single isomer, unassigned) [Example 108, (R)- or (S)-3-(Hydroxymethyl)-6-methyl-1-(1-(2-methyl-4-(trifluoromethyl)phenyl)ethyl)-1H-pyrazolo[3,4-d]pyrimidin-4(5H)-one], for which the Ki under setting [1] is approximately 1280 nM.
The same measure, in the same setting: to `Cc1nc2c(c(C(F)(F)F)nn2C(C)c2ccc(C(F)(F)F)cc2)c(=O)[nH]1` (single isomer, unassigned) [Example 68, (R)- or (S)-6-Methyl-3-(trifluoromethyl)-1-(1-(4-(trifluoromethyl)phenyl)ethyl)-1H-pyrazolo[3,4-d]pyrimidin-4(5H)-one] belongs 8.6 nM; to `Cc1nc2c(c(-c3nnco3)nn2C(C)c2ccc(C(F)(F)F)cc2)c(=O)[nH]1` (single isomer, unassigned) [Example 262], 395 nM.
The same measure, in the same setting: the value for `Cc1nc2c(c(C(=O)N3CCOCC3)nn2C(C)c2ccc(C(F)(F)F)cc2)c(=O)[nH]1` (single isomer, unassigned) [Example 270, (R)- or (S)-6-Methyl-3-(morpholine-4-carbonyl)-1-(1-(4-(trifluoromethyl)phenyl)ethyl)-1H-pyrazolo[3,4-d]pyrimidin-4(5H)-one] was more than 2960 nM.

For orientation: Ki means the equilibrium dissociation constant of an inhibitor or competing ligand from its target.
